How the values were obtained:
human androgen receptor = molecular target: T1, human androgen receptor (Homo sapiens, UniProt P10275); assay: Reporter assay of an androgen receptor responsive sequence (luciferase, transiently transfected HEK293 cells); assay type: cell-based; conditions: 24 hours incubation, relative to activity of 100 nM DHT, read-out: AR transcriptive activity (pEC50) (converted)
T1 construct: expressed in transfected cells; host or cells: HEK293
T1 sequence (P10275 1-920): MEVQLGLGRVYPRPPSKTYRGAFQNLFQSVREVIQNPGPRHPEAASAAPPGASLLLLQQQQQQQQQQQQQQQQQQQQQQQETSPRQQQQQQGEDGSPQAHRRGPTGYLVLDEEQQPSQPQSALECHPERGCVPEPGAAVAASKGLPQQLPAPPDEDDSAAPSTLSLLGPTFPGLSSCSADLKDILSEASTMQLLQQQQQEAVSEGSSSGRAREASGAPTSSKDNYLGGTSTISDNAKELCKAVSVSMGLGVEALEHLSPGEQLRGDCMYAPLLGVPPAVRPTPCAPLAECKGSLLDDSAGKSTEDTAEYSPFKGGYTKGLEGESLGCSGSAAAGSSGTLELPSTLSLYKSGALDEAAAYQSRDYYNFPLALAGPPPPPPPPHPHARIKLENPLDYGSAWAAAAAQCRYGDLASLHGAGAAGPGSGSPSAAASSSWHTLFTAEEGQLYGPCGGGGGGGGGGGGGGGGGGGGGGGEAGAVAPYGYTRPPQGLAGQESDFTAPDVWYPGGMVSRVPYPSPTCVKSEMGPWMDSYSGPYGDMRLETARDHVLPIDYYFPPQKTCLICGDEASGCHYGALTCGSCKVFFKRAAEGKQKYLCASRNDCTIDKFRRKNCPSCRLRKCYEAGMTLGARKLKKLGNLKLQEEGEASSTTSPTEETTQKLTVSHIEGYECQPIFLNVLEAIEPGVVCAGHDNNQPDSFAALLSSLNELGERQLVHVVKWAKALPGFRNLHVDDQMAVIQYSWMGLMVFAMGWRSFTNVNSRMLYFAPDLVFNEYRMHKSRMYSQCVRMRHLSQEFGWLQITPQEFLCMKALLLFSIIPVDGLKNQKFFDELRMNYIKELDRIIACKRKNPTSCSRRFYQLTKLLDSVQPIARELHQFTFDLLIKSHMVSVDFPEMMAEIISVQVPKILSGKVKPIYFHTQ
Outline: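 Agonism scored as pEC50, fitted by 4-parameter curve against the response to 100 nM DHT, from dual-luciferase readout after 24 h compound treatment. Cells were HEK293 co-transfected (3 h) with human AR expression vector, androgen-responsive firefly reporter and Renilla control, in charcoal-stripped serum.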

[1] = molecular target: T2, androgen receptor (AR-LBD) (Rattus norvegicus, UniProt P15207); assay: Evaluation of androgen receptor affinity (PolarScreen Androgen Receptor Competitor Assay Kit, Red; fluorescence polarization); conditions: 22° C. for 5 hours, relative to binding rate of 1 μM DHT, read-out: AR affinity (pEC50) (converted)
T2 construct: 5 μL of 2×AR-LBD/Fluoromone AL Red Complex contained in the kit; purchased Invitrogen
T2 sequence (P15207 651-882 limits assumed): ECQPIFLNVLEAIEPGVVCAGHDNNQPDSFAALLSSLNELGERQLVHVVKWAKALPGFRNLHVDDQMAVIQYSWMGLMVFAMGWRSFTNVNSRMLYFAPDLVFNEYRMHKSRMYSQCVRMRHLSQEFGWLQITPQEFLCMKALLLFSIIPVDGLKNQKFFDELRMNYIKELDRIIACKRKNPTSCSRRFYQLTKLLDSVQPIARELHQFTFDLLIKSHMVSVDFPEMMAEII
Outline: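 FP competition: compound + AR-LBD/Fluoromone AL Red tracer complex, 22° C, 5 h. Reference 1 μM DHT binding rate; pEC50 by 4-parameter fit.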

**Q.** Which results are given for `Cc1sc(N(CCc2ccc(Cl)cc2)Cc2cccc(F)c2)nc1C(=O)NS(C)(=O)=O` [Compound 143, 2-[2-(4-chlorophenyl)ethyl-[(3-fluorophenyl)methyl]amino]-5-methyl-N-methylsulfonyl-thiazole-4-carboxamide]?
**A.** EC50 (human androgen receptor): 50.1 nM; EC50 [1]: 25.1 nM

**Q.** Which results are given for `COc1cccc(CCN(c2ccc(C#N)cc2)c2nc(C(=O)NS(C)(=O)=O)c(C)s2)c1` [Compound 399, 2-[4-cyano-N-[2-(3-methoxyphenyl)ethyl]anilino]-5-methyl-N-methylsulfonyl-thiazole-4-carboxamide]?
**A.** EC50 (human androgen receptor): > 10000 nM; EC50 [1]: 251 nM

**Q.** With `COc1cc(Cl)ccc1CN(c1ccc(C#N)cc1)c1nc(C(=O)NS(C)(=O)=O)c(C)s1` [Compound 118, 2-[N-[(4-chloro-2-methoxy-phenyl)methyl]-4-cyano-anilino]-5-methyl-N-methylsulfonyl-thiazole-4-carboxamide] as the compound, how does the EC50 (human androgen receptor) read?
**A.** 398 nM

**Q.** What about the EC50 [1] of the same compound?
**A.** 50.1 nM

**Q.** `Cc1sc(N(Cc2cccc(Oc3ccccc3)c2)c2ccc(C#N)cc2)nc1C(=O)NS(C)(=O)=O` [Compound 82, 2-[4-cyano-N-[(3-phenoxyphenyl)methyl]anilino]-5-methyl-N-methylsulfonyl-thiazole-4-carboxamide] was tested. Which EC50 (human androgen receptor) did it give?
**A.** > 10000 nM

**Q.** What about the EC50 [1] of the same compound?
**A.** 79.4 nM

**Q.** Which EC50 (human androgen receptor) does the source give for `CS(=O)(=O)NC(=O)c1nc(N(Cc2ccc(C(F)(F)F)cn2)c2ccc(C#N)cc2)oc1C1CC1` [Compound 649, 2-[4-cyano-N-[[5-(trifluoromethyl)-2-pyridyl]methyl]anilino]-5-cyclopropyl-N-methylsulfonyl-oxazole-4-carboxamide] here?
**A.** > 10000 nM

**Q.** What about the EC50 [1] of the same compound?
**A.** 631 nM

**Q.** With `Cc1sc(N(CCC2CCCCC2)Cc2ccc(OC(F)(F)F)cc2)nc1C(=O)NS(=O)(=O)Cc1cccc(F)c1` [Compound 735, 2-[2-cyclohexylethyl-[[4-(trifluoromethoxy)phenyl]methyl]amino]-N-[(3-fluorophenyl)methylsulfonyl]-5-methyl-thiazole-4-carboxamide] as the compound, how does the EC50 (human androgen receptor) read?
**A.** > 10000 nM

**Q.** And the EC50 [1]?
**A.** 1000 nM

**Q.** For `COCCCS(=O)(=O)NC(=O)c1nc(N(CCc2ccc(C#N)cc2)Cc2ccc(F)cc2)oc1C` [Compound 556, 2-[2-(4-cyanophenyl)ethyl-[(4-fluorophenyl)methyl]amino]-N-(3-methoxypropylsulfonyl)-5-methyl-oxazole-4-carboxamide], which EC50 (human androgen receptor) is on record?
**A.** 1260 nM

**Q.** And the EC50 [1]?
**A.** 100 nM

**Q.** Which EC50 (human androgen receptor) does the source give for `Cc1sc(N(Cc2cnc(-c3ccccc3F)s2)c2ccc(C#N)cc2)nc1C(=O)NS(C)(=O)=O` [Compound 495, 2-[4-cyano-N-[[2-(2-fluorophenyl)thiazol-5-yl]methyl]anilino]-5-methyl-N-methylsulfonyl-thiazole-4-carboxamide] here?
**A.** > 10000 nM

**Q.** And the EC50 [1]?
**A.** 39.8 nM

**Q.** What does the source list for `Cc1sc(N(Cc2ccc(OC(F)(F)F)c(Cl)c2)c2ccc(C#N)cc2)nc1C(=O)NS(C)(=O)=O` [Compound 421, 2-[N-[[3-chloro-4-(trifluoromethoxy)phenyl]methyl]-4-cyano-anilino]-5-methyl-N-methylsulfonyl-thiazole-4-carboxamide]?
**A.** EC50 (human androgen receptor): 200 nM; EC50 [1]: 20 nM

**Q.** Which EC50 (human androgen receptor) does the source give for `Cc1sc(N(CCc2ccc(Cl)cc2)Cc2ccc(Cl)cc2)nc1C(=O)NS(C)(=O)=O` [Compound 692, 2-[2-(4-chlorophenyl)ethyl-[(4-chlorophenyl)methyl]amino]-5-methyl-N-methylsulfonyl-thiazole-4-carboxamide] here?
**A.** 79.4 nM

**Q.** What about the EC50 [1] of the same compound?
**A.** 20 nM

**Q.** Which EC50 (human androgen receptor) does the source give for `Cc1sc(N(CCc2ccc(C#N)cc2)Cc2ccc(OC(F)(F)F)cc2)nc1C(=O)NS(=O)(=O)Cc1cccnc1` [Compound 324, 2-[2-(4-cyanophenyl)ethyl-[[4-(trifluoromethoxy)phenyl]methyl]amino]-5-methyl-N-(3-pyridylmethylsulfonyl)thiazole-4-carboxamide] here?
**A.** 100 nM

**Q.** And the EC50 [1]?
**A.** 20 nM

**Q.** How did the EC50 (human androgen receptor) turn out when `CS(=O)(=O)NC(=O)c1nc(N(Cc2ccccc2)c2ccc(C#N)cc2)sc1C(F)F` [Example 284, 2-(N-benzyl-4-cyano-anilino)-5-(difluoromethyl)-N-methylsulfonyl-thiazole-4-carboxamide] was run?
**A.** > 10000 nM

**Q.** What about the EC50 [1] of the same compound?
**A.** 126 nM

Reference: patent publication US10689354B2, “Aminoazole derivative” (Teijin Pharma Limited, priority 2015, dated 2020)
